Entries after “also recorded” stand apart in the source; their conditions may differ.
Experiments:
Format in all cases: physicochemical
[1] = In vitro plasma compatibility of AM-2-19 in human plasma
Text: The in vitro plasma compatibility of AM-2-19 in human plasma is represented below: […]

[2] = Solubility of AM-2-19-FB in D5W/DSG-PEG2000; details: aqueous with cosolvent or surfactant or cyclodextrin
[3] = Solution stability of AM-2-19 in IV-compatible solvents (FIG. 1); details: IV-compatible solvents such as 5% dextrose in water (D5W)
[4] = ratio 1:0.1, final concentration AM-2-19 0.09 mg/mL
[5] = ratio 1:0.1, final concentration AM-2-19 0.18 mg/mL
[6] = ratio 1:0.1, final concentration AM-2-19 0.45 mg/mL
[7] = ratio 1:1, final concentration AM-2-19 0.50 mg/mL
[8] = ratio 1:1, final concentration AM-2-19 1.00 mg/mL
[9] = ratio 1:1, final concentration AM-2-19 2.50 mg/mL

Compatibility [1, 4]: compatible
Precipitate/Pellet or Coagulation Observed [1, 4]: None
Compatibility [1, 5]: compatible
Precipitate/Pellet or Coagulation Observed [1, 5]: None
Compatibility [1, 6]: Not compatible
Precipitate/Pellet or Coagulation Observed [1, 6]: Pellet (Very Light)
Compatibility [1, 7]: Not compatible
Precipitate/Pellet or Coagulation Observed [1, 7]: Pellet (Light)
Compatibility [1, 8]: Not compatible
Precipitate/Pellet or Coagulation Observed [1, 8]: Pellet (Moderate)
Compatibility [1, 9]: Not compatible
Precipitate/Pellet or Coagulation Observed [1, 9]: Pellet (Severe)
solubility ([2]; in D5W/DSG-PEG2000 (1:3 molar ratio) without the acetate buffer): ~100 µg/mL
solubility ([2]; in D5W/DSG-PEG2000 with acetate buffer): > 8000 µg/mL
SMILES: CC1OC(OC2/C=C/C=C/C=C/C=C/C=C/C=C/C=C/[C@H](C)[C@@H](O)[C@@H](C)[C@H](C)OC(=O)C[C@H](O)C[C@H](O)CC[C@@H](O)[C@H](O)C[C@H](O)C[C@]3(O)C[C@H](O)[C@@H](C(=O)NC(CO)CO)C(C2)O3)C(O)C(N)C1O (stereo partly drawn) [AM-2-19]
solution stability [3]: unstable even over the course of hours; also recorded: lacks solution stability

From patent publication US20250387422A1, “FORMULATION OF AN AMPHOTERICIN B HYBRID AMIDE DERIVATIVE IN DSGPEG2K MICELLES” (The Board of Trustees of the University of Illinois, priority 2022, published 2025)
